Experimental data as given in paper PMC6757289, “Design and Characterization of SGK3-PROTAC1, an Isoform Specific SGK3 Kinase PROTAC Degrader” (ACS Chemical Biology, 2019).

Experiments:
Assay type in all cases: cell-based
SGK2 = target: T1, SGK2 (Homo sapiens, UniProt Q9HBY8); assay: SGK2 protein level in HEK293 cells, immunoblot; conditions: HEK293, 48 h
T1 construct: reduced endogenous SGK isoform or S6K1 expression when administered to HEK293 cells for 48 h; endogenous in cells; host or cells: HEK293
Description: (§1) A medium length linker composed of three PEG units was used in the first instance (Figure 1B and C). […] After 48 h of PROTAC treatment, cell lysates were analyzed by immunoblot analysis, and protein expression under each condition was quantified relative to the DMSO-only control. […] DAT1 reduced SGK3 expression by 60% at 1 μM and 75% at 10 μM after 48 h (Figure 1D). […] As expected, inhibition of CUL2 neddylation by means of the inhibitor MLN4924 (3 μM) or proteasome inhibition (MG132, 50 μM) blocked DAT1-induced degradation of SGK3 (Figure S1C).
(§2) All cell treatments were carried out as described in figure legends, to a final DMSO concentration of 0.1% (v/v). Lysates were quantified. Immunoblotting was performed using standard procedures, described in brief below. Lysate concentration was quantified by Bradford Assay, and 10 μg of lysate was loaded in the LDS sample buffer for SDS-PAGE electrophoresis on Novex 4–12% Bis–Tris gels. Proteins were electrophoretically transferred onto nitrocellulose membranes (Amersham Protran 0.45 μm NC; GE Healthcare) at 80 V for 80 min on ice in transfer buffer. […] The signal was produced with near-infrared secondary antibodies and detected using a Licor Biosciences Odyssey System, and the signal was quantified in Image Studio Lite.

SGK1 [1] = target: T2, SGK1 (Homo sapiens, UniProt O00141); assay: SGK1 protein level in HEK293 cells, immunoblot; conditions: HEK293, 48 h
T2 sequence (O00141 1-431): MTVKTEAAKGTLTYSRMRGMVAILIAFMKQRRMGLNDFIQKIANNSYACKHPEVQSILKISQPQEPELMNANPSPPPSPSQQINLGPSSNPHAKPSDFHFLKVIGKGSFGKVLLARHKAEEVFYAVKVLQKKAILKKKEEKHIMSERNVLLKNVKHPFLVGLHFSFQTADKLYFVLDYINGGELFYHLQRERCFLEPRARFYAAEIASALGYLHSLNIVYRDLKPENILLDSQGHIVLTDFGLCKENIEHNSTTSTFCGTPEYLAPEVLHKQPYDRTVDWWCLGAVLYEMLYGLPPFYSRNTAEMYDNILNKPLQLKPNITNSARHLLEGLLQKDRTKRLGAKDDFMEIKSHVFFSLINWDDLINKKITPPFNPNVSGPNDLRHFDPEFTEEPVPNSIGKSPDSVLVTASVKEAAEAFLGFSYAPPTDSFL
Description: as §1, §2

SGK3 = target: T3, SGK3 (Homo sapiens, UniProt Q96BR1); assay: SGK3 degradation in ZR-75-1 cells, immunoblot; conditions: for SGK3 expression: ZR-75-1, 5 days 1 μM GDC0941 or AZD5363, 0.3 μM for 5 days or 8 h
T3 sequence (Q96BR1 1-496): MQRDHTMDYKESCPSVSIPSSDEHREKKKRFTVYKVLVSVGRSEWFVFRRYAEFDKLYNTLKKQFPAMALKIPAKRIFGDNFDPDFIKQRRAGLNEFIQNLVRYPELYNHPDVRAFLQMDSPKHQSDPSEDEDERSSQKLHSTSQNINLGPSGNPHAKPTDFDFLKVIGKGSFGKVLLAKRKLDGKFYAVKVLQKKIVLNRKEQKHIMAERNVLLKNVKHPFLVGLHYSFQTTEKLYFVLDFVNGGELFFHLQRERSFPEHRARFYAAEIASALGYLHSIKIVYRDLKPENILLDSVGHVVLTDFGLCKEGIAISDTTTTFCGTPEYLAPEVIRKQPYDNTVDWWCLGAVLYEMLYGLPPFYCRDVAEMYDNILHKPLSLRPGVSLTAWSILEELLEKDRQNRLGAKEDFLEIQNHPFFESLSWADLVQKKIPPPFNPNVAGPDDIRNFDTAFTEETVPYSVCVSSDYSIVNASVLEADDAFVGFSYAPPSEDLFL
Description: (§3) Figure 3 Characterization of cellular activities of SGK3-PROTAC1 and cisSGK3-PROTAC1. (A) HEK293 cells were first treated for 8 h with 0.03–3 μM SGK3-PROTAC1 and cisSGK3-PROTAC1. One hour before lysis, cells were treated with 3 μM AZD5363. Lysates were subjected to immunoblot analysis with the indicated antibodies. […] Lysates were subjected to immunoblot analysis with the indicated antibodies. (C) HEK293 cells were treated for up to 48 h with SGK3-PROTAC1 (0.3 μM), and lysates were analyzed by immunoblot analysis using the indicated antibodies. (D) HEK293 cells were treated for 24 h with SGK3-PROTAC1. Cells were washed three times with DMEM to wash out the compound, and recovery of SGK3 expression protein was analyzed by immunoblot analysis. (E–G) As in A except that CAMA-1 (E), ZR-75-1 (F), and JIMT-1 (G) cells were employed rather than HEK293 cells.
Figure 5 SGK3-PROTAC1-mediated degradation of SGK3 inhibits Akt-independent activation of mTORC1 in cancer cell lines treated with Akt or PI3K inhibitors. CAMA-1 (A, C) or ZR-75-1 (B, D) were treated for 5 days with 1 μM GDC0941 (A, B) or 1 μM AZD5363 (C, D). Cells were treated with the compounds indicated for either 5 days or 8 h before lysis; cells were treated with the compounds indicated. Cell lysates were subject to immunoblot analysis with the indicated antibodies.
All cell treatments were carried out as described in figure legends, to a final DMSO concentration of 0.1% (v/v). Lysates were quantified. Immunoblotting was performed using standard procedures, described in brief below. Lysate concentration was quantified by Bradford Assay, and 10 μg of lysate was loaded in the LDS sample buffer for SDS-PAGE electrophoresis on Novex 4–12% Bis–Tris gels. Proteins were electrophoretically transferred onto nitrocellulose membranes (Amersham Protran 0.45 μm NC; GE Healthcare) at 80 V for 80 min on ice in transfer buffer. Transferred membranes were blocked with 5% (w/v) nonfat dry milk dissolved in TBS-T [20 mM Tris/HCl, pH 7.5, 150 mM NaCl, and 0.1% (v/v) Tween 20] at RT for 30 min, before incubation with the primary antibody overnight at 4 °C. The signal was produced with near-infrared secondary antibodies and detected using a Licor Biosciences Odyssey System, and the signal was quantified in Image Studio Lite.

SGK1 [2] = target: T2, SGK1; assay: SGK1 degradation in JIMT1 cells, immunoblot; conditions: JIMT1, up to 3 μM
Description: as §3, with “cells. […]” for “cells.”
All cell treatments were carried out as described in figure legends, to a final DMSO concentration of 0.1% (v/v). Lysates were quantified. […] Lysate concentration was quantified by Bradford Assay, and 10 μg of lysate was loaded in the LDS sample buffer for SDS-PAGE electrophoresis on Novex 4–12% Bis–Tris gels. […] The signal was produced with near-infrared secondary antibodies and detected using a Licor Biosciences Odyssey System, and the signal was quantified in Image Studio Lite.

T1 sequence (Q9HBY8 whole entry, canonical isoform): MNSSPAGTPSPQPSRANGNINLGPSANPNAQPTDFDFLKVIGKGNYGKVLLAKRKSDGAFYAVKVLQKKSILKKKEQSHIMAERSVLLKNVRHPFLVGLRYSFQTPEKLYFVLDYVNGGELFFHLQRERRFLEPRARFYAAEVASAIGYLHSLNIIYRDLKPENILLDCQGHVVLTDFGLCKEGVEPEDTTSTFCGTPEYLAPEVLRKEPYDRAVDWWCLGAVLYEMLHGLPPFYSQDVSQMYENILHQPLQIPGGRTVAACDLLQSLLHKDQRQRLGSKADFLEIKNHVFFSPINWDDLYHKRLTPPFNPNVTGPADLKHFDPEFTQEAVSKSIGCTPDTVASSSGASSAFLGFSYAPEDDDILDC

Row | SMILES | SGK2 level (SGK2; up to 10 μM) | SGK1 level (SGK1 [1]; up to 10 μM) | SGK2 level (SGK2; 0.1 μM) | SGK1 level (SGK1 [1]; 0.1 μM) | concentration inducing degradation of SGK3 (SGK3; ZR-75-1, 8 h) [µM] | SGK3 expression (SGK3) | degradation of SGK1 (SGK1 [2]) | degradation of SGK3 (SGK3; ZR-75-1, 8 h, 0.03–3 μM)
1 | Cc1ccc(F)c(S(=O)(=O)Nc2ccc(-c3nc(OC[C@H]4CN(CCOCCOCCOCC(=O)N[C@H](C(=O)N5C[C@H](O)C[C@H]5C(=O)NCc5ccc(-c6scnc6C)cc5)C(C)(C)C)CCO4)c4cn[nH]c4n3)cc2)c1 [DAT1] | not significantly impacted | not significantly impacted | – | – | – | – | – | –
2 | Cc1ccc(F)c(S(=O)(=O)Nc2ccc(-c3nc(OC[C@H]4CN(CCCCCCOCCOCCOCC(=O)N[C@H](C(=O)N5C[C@H](O)C[C@H]5C(=O)NCc5ccc(-c6scnc6C)cc5)C(C)(C)C)CCO4)c4cn[nH]c4n3)cc2)c1 [SGK3-PROTAC1] | – | – | without effecting | without effecting | > 0.1 | substantially reduced | failed to induce degradation of SGK1 | –
3 | Cc1ccc(F)c(S(=O)(=O)Nc2ccc(-c3nc(OC[C@H]4CN(CCCCCCOCCOCCOCC(=O)N[C@H](C(=O)N5C[C@@H](O)C[C@H]5C(=O)NCc5ccc(-c6scnc6C)cc5)C(C)(C)C)CCO4)c4cn[nH]c4n3)cc2)c1 [cisSGK3-PROTAC1] | – | – | – | – | – | no significant effect | – | no impact
